Assay results published in patent US20140276355A1, “Co-administration of Light and a Therapeutic Agent to Stimulate Dysfunctional Mitochondria Affected By a Neurological Disorder” (MEDOS INTERNATIONAL SARL, priority 2013, published 2014).

Tests used:
[1] = system: Drosophila model for Parkinson disease; test: Flight assay in Drosophila model for Parkinson disease; assay type: in vivo
Description: Flight assays were conducted using male flies in batches of 5 flies each. Flies were placed in an empty vial (5 cm×10 cm), gently tapped and scored visually for their ability to fly. […] The combination of both treatments (e.g., Vitamin K2 and light) provided more than 50% restoration of the locomotor impairment.

Heixudian mutants = conditions: Drosophila Heixudian mutants; Vos et al., Science 2012; cited from earlier work

Compound: CC(C)=CCC/C(C)=C/CC/C(C)=C/CC/C(C)=C/CC1=C(C)C(=O)c2ccccc2C1=O [Vitamin K2]
- restoration of the locomotor impairment (flight capacity) ([1]; combination of Vitamin K2 and light (808 nm continuous laser diode, 100 s, 25 mW/cm2)): more than 50%
- restored flight capability (animals able to fly) ([1]; systemic administration of Vitamin K2 alone, male flies, non-treated controls less than 15%): about 30%
- severe mitochondria defects (Heixudian mutants): rescued
